Source: patent publication US20190038628A1, “USE OF INHIBITORS OF THE ACTIVITY OR FUNCTION OF PI3K FOR THE TREATMENT OF PRIMARY SJOGREN'S SYNDROME” (Novartis AG, priority 2016, published 2019)
“And” between values parts separate entries of the source, which are not always exact repeats. Identical values can stand only once.

Columns and labels:
[1] = system: Human Peripheral Blood Mononuclear Cells (PBMC); assay: TLR9 ligand-induced CXCL13 production of human PBMC; format: cell-based; conditions: ODN stimulus; for CXCL13 in culture supernatant: individual donors 1-6; for CXCL13 in culture supernatant, mean: mean of 6 donors
Excerpt: (§1) For evaluating the effect of compound A on the production of chemokines relevant for the formation of germinal centers, PBMC were isolated from Buffy Coat (collected through Inter-Regionale Blutspende of the Swiss Red Cross) by standard Ficoll gradient centrifugation using Ficoll-Paque plus (GE healthcare #17-1440-03) in Leucosep tubes (Greiner Bio-one #227289). Cells were washed two times with PBS and then resuspended at 2.2×10^6/mL in RPMI 1640 medium supplemented with 10% FBS, Gentamycine (50 ug/ml), Insulin-Transferrin-Selenium and P-Mercaptoethanol (50 uM).
(§2) PBMC were dispensed to 48-well plates (Costar #3548) and incubated with pre-diluted compound A resulting in a dilution with a final concentration of 0.3, 1 or 3 uM. Control samples were pretreated with DMSO to obtain a final concentration of 0.03% DMSO. Samples were mixed thoroughly and incubated in a humified incubator at 37° C. for 1 h. Cells were thereafter stimulated by the addition of the TLR9 agonist ODN M362 (Invivogen, #tlrl-m362) at a final concentration of 30 ug/ml or anti-IgM-Dextran (Finabiosolution #0004) at a final concentration of 2 ug/ml. Control samples were left unstimulated. Samples were mixed thoroughly and incubated in a humified incubator at 37° C. for 24 h.
(§3) After the stimulation, culture supernatants were harvested and chemokines quantified by Bio-Plex Multiplex immunoassay (CXCL13; Bio Rad #171 BK12MR2) or MSD V-Plex assay (IP-10; Meso Scale Diagnostics) or according to the manufacturer's instructions.

[2] = system: Human Peripheral Blood Mononuclear Cells (PBMC); assay: anti-IgM-Dextran-induced IP-10 production of human PBMC; format: cell-based; conditions: for IP-10 in culture supernatant: individual donors 1-6; for IP-10 in culture supernatant, mean: mean of 6 donors
Excerpt: as §1, §2, §3

[3] = system: B cells from Buffy Coat; assay: CXCL13-induced B cell migration (transwell); format: cell-based, human; conditions: for cell count (migrated B cells): mean of 4 wells
Method: PBMC were isolated from Buffy Coat as described above. Cells were washed two times with PBS and then resuspended at 5×10^7/mL in PBS containing 2% FBS and 1 mM EDTA. Further B cell purification was performed via depletion of non-B cells with an EasySep™ Human B Cell Enrichment Kit (STEMCELL Technologies #19054) according to the manufacture's instruction. In brief, 4×10^8 PBMCs in 8 ml isolation buffer were incubated with 400 ul of enrichment cocktail in a 14 mL round-bottom tube for 10 minutes at room temperature. PBMC were further incubated with 600 ul of magnetic particles for 5 minutes at room. For B cell isolation, the tube was placed into the magnet for 5 min and enriched B cells were collected in a fresh 14 ml tube. Cells were then washed and resuspended at 5×10^6/mL in RPMI 1640 medium supplemented with 10% FBS, Gentamycine (50 ug/ml), Insulin-Transferrin-Selenium and P-Mercaptoethanol (50 uM).
Isolated B cells were dispensed to 5 ml round-bottom tube (Costar #352054) and incubated with pre-diluted compound A resulting in a dilution with a final concentration of 10, 1, 0.1 or 0.01 uM. Control samples were pretreated with DMSO to obtain a final concentration of 0.1% DMSO. Samples were mixed thoroughly and incubated in a water bath at 37° C. for 30 minutes. Some 235 ul of CXCL13 (R&D Systems #801-CX) in a dilution with a final concentration of 100 nM was added to the wells of the 96-well transwell receiver plate (Costar #3387). Control wells were filled with 235 ul medium. The 5 um permeable support insert was added to the receiver plate and filled with 80 ul of pre-incubated B cells. Transwell plate was incubated in a humified incubator at 37° C. for 3 h. Permeable support insert was removed and cell number in receiver plate was assessed by flow cytometry.

[4] = system: BPMC derived from human healthy volunteers; assay: Chemokines in supernatant of PBMC from healthy volunteers stimulated with CpG or anti-IgM (summary statement); format: cell-based
Excerpt: Phosphorylated Akt (pAkt) is a downstream effector of PI3K delta activation. 1-{(S)-3-[6-(6-Methoxy-5-trifluoromethyl-pyridin-3-yl)-5,6,7,8-tetrahydro-pyrido[4,3-d]pyrimidin-4-ylamino]-pyrrolidin-1-yl}-propan-1-one or pharmaceutically acceptable salts thereof is a PI3K inhibitor with a selectivity for the PI3K delta isoform (WO2012/004299). […] 1) Chronic B-cell hyperactivity is a consistent and prominent immunoregulatory abnormality in pSS (Hansen A et al, Arthritis Research & Therapy 2007; 9; 218). […] 1-{(S)-3-[6-(6-Methoxy-5-trifluoromethyl-pyridin-3-yl)-5,6,7,8-tetrahydro-pyrido[4,3-d]pyrimidin-4-ylamino]-pyrrolidin-1-yl}-propan-1-one or pharmaceutically acceptable salts thereof inhibits CXCL13 (BCA-1, BLC), but also of CXCL10 (IP-10) and CCL4 (MIP-1beta) in supernatant of BPMC derived from human healthy volunteers stimulated with CpG or anti-IgM. • 3) Characteristic features in pSS include the formation of ectopic lymphoid tissue with germinal center (GC)-like structures. In healthy individuals, GCs are generated from primary B-cell follicles of secondary lymphoid organs during T-cell-dependent immune responses (Hansen A et al, Arthritis Research & Therapy 2007; 9; 218).

[5] = Homo sapiens, PBMC, Compound A 300 nM
[6] = Homo sapiens, PBMC, Compound A 1000 nM
[7] = Homo sapiens, PBMC, Compound A 3000 nM

CCC(=O)N1CC[C@H](Nc2ncnc3c2CN(c2cnc(OC)c(C(F)(F)F)c2)CC3)C1 [Compound A, 1-{(S)-3-[6-(6-Methoxy-5-trifluoromethyl-pyridin-3-yl)-5,6,7,8-tetrahydro-pyrido[4,3-d]pyrimidin-4-ylamino]-pyrrolidin-1-yl}-propan-1-one]
inhibition at 0.3 µM [1, 5]: 40%
inhibition at 1 µM [1, 6]: 51%
inhibition at 3 µM [1, 7]: 55%
CXCL13 in culture supernatant ([1]; Compound A 300 nM): 8 pg/ml (2×) and 3 pg/ml and 39 pg/ml and 113 pg/ml and 51 pg/ml
CXCL13 in culture supernatant, mean ([1]; Compound A 300 nM): 37 pg/mL
CXCL13 in culture supernatant ([1]; Compound A 1000 nM): 7 pg/ml and 3 pg/ml and 42 pg/ml (2×) and 84 pg/ml and 6 pg/ml
CXCL13 in culture supernatant, mean ([1]; Compound A 1000 nM): 31 pg/mL
CXCL13 in culture supernatant ([1]; Compound A 3000 nM): 5 pg/mL and 3 pg/mL and 29 pg/mL and 86 pg/mL and 41 pg/mL and 4 pg/mL
CXCL13 in culture supernatant, mean ([1]; Compound A 3000 nM): 28 pg/mL
IP-10 in culture supernatant ([2]; Compound A 300 nM): 79 pg/mL and 32 pg/mL and 37 pg/mL and 1233 pg/mL and 52 pg/mL and 2764 pg/mL
IP-10 in culture supernatant, mean ([2]; Compound A 300 nM): 699 pg/mL
IP-10 in culture supernatant ([2]; Compound A 1000 nM): 71 pg/mL and 29 pg/mL and 42 pg/mL and 1010 pg/mL and 52 pg/mL and 1624 pg/mL
IP-10 in culture supernatant, mean ([2]; Compound A 1000 nM): 471 pg/mL
IP-10 in culture supernatant ([2]; Compound A 3000 nM): 93 pg/mL and 27 pg/mL and 34 pg/mL and 899 pg/mL and 59 pg/mL and 715 pg/mL
IP-10 in culture supernatant, mean ([2]; Compound A 3000 nM): 305 pg/mL
inhibition at 0.3 µM [2, 5]: 12%
inhibition at 1 µM [2, 6]: 41%
inhibition at 3 µM [2, 7]: 62%
inhibition at 0.01 µM ([3]; Homo sapiens, B-cell, compound A 10 nM): 13%
inhibition at 0.1 µM ([3]; Homo sapiens, B-cell, compound A 100 nM): 39%
inhibition at 1 µM ([3]; Homo sapiens, B-cell, compound A 1000 nM): 52%
inhibition at 10 µM ([3]; Homo sapiens, B-cell, compound A 10000 nM): 79%
cell count (migrated B cells) ([3]; compound A 10 nM): 6165
cell count (migrated B cells) ([3]; compound A 100 nM): 4556
cell count (migrated B cells) ([3]; compound A 1000 nM): 3743
cell count (migrated B cells) ([3]; compound A 10000 nM): 2043
CCL4 (MIP-1beta) in supernatant (in words) [4]: inhibits
CXCL10 (IP-10) in supernatant (in words) [4]: inhibits
CXCL13 (BCA-1, BLC) in supernatant (in words) [4]: inhibits
